PMC9421653 (Journal of Medicinal Chemistry, 2022)
Converted amounts (≈) assume the structure as drawn. “Also recorded” adds a separate entry of the source.

Columns and labels:
human GPR84 [1] = molecular target: T1, human GPR84 (Homo sapiens, UniProt P04899+Q9NQS5); experiment: biochemical; type: biochemical; conditions: for GTPγS (pIC50): [35S]GTPγS assay, negative log of the IC50 in molar, mean ± SEM; for LLE: LLE = pIC50 – CLog P
T1 construct: expressed in transfected cells; host or cells: Flp-In T-REx 293 cells, doxycycline-induced; membrane preparations

[2] = Log D7.4 (distribution coefficient); type: physicochemical; conditions: pH 7.4
physchem = experiment: physchem
From the text: DPI = 4,5-Diphenylimidazole
(2 pictures or pasted objects on this page, not shown here)

[3] = Mouse hepatocyte stability; type: in vitro ADME; conditions: hepatocytes, read-out: mouse heps t1/2
[4] = Mouse plasma protein binding; type: in vitro ADME; conditions: read-out: mouse PPB
in vitro = conditions: human, microsomes
human GPR84 [5] = molecular target: T2, human GPR84 (Homo sapiens, UniProt Q9NQS5); experiment: biochemical; type: biochemical; conditions: [35S]GTPγS assay; negative log of the IC50 in molar; mean ± SEM; read-out: GTPγS (pIC50) (converted)
T2 construct: expressed in transfected cells; host or cells: Flp-In T-REx 293 cells, doxycycline-induced; membrane preparations

human FFAR2 = molecular target: T3, human FFAR2 (Homo sapiens, UniProt O15552); experiment: [35S]GTPγS binding, block of C3 (propionate) at FFAR2; type: biochemical; conditions: tested at 10 μM
T3 construct: expressed in transfected cells; host or cells: Flp-In T-REx 293 cells, induced; membrane preparations
T3 sequence (O15552 1-330): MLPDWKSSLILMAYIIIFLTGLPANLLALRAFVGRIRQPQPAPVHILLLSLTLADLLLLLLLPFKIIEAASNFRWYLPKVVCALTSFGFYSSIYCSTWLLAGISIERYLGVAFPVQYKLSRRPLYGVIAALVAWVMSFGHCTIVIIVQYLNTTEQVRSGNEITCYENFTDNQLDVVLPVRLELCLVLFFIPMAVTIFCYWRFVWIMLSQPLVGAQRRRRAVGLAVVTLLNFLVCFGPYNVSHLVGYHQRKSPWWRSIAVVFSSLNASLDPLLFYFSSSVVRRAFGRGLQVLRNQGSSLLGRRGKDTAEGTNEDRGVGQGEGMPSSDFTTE

human FFAR3 = molecular target: T4, human FFAR3 (Homo sapiens, UniProt O14843); experiment: [35S]GTPγS binding, block of C3 (propionate) at FFAR3; type: biochemical; conditions: tested at 10 μM
T4 construct: expressed in transfected cells; host or cells: Flp-In T-REx 293 cells, induced; membrane preparations
T4 sequence (O14843 1-346): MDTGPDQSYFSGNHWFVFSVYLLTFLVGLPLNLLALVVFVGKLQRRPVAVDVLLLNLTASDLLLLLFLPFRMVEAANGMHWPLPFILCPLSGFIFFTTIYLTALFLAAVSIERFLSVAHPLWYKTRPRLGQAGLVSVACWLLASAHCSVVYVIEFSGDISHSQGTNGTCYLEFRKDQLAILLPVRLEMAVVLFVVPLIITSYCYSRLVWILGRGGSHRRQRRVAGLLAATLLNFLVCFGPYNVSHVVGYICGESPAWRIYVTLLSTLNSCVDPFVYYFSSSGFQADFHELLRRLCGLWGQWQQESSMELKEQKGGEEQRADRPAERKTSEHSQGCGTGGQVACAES

mouse plasma protein = experiment: Mouse plasma protein binding; type: in vitro ADME
[6] = In vivo mouse PK, IV dosing; conditions: IV (1 mg/kg), CV % in parenthesis
Description: (§1) Mouse pharmacokinetic studies were carried out by Xenogesis Ltd. (Nottingham, U.K.). All life phases were conducted in accordance with the local Ethics Review process.
Male C57BL/6J mice (n = 3, Charles River, U.K.) were intravenously administered with a dose of 1 mg/kg of the appropriate compound (formulation 5% v/v DMSO in 20% w/v HPCD in water). […] Plasma concentrations were determined by LC/MS/MS. LC/MS/MS analysis was performed using a Thermo TSQ Quantiva with Thermo Vanquish UPLC system on a Luna Omega C18 column. The plasma concentrations were simulated by nonparametric analysis from the plasma concentrations obtained in the PK study using Phoenix WinNonlin.

[7] = In vivo mouse PK, PO dosing; conditions: for Tmax / AUCall / Cmax: PO (10 mg/kg); for AUCall / Cmax / bioavailability: CV % in parenthesis; for bioavailability: male, C57BL/6J, plasma, PO (10 mg/kg) vs IV (1 mg/kg)
Description: as §1
Male C57BL/6J mice (n = 3, Charles River, U.K.) were orally administered with a dose of 10 mg/kg of the appropriate compound (formulation 0.5% w/v methylcellulose in water). […] Plasma concentrations were determined by LC/MS/MS. LC/MS/MS analysis was performed using a Thermo TSQ Quantiva with Thermo Vanquish UPLC system on a Luna Omega C18 column. The plasma concentrations were simulated by nonparametric analysis from the plasma concentrations obtained in the PK study using Phoenix WinNonlin.

[8] = pH 7.4, Kinetic Solubility, R=1, PBS pH7.4 in 2% DMSO by plate reader, replicate 1
[9] = pH 7.4, Kinetic Solubility, R=2, PBS pH7.4 in 2% DMSO by plate reader, replicate 2
[10] = pH 7.4, kinetic solubility, PBS pH7.4 in 2% DMSO

T1 sequence (Q9NQS5+P04899 fused): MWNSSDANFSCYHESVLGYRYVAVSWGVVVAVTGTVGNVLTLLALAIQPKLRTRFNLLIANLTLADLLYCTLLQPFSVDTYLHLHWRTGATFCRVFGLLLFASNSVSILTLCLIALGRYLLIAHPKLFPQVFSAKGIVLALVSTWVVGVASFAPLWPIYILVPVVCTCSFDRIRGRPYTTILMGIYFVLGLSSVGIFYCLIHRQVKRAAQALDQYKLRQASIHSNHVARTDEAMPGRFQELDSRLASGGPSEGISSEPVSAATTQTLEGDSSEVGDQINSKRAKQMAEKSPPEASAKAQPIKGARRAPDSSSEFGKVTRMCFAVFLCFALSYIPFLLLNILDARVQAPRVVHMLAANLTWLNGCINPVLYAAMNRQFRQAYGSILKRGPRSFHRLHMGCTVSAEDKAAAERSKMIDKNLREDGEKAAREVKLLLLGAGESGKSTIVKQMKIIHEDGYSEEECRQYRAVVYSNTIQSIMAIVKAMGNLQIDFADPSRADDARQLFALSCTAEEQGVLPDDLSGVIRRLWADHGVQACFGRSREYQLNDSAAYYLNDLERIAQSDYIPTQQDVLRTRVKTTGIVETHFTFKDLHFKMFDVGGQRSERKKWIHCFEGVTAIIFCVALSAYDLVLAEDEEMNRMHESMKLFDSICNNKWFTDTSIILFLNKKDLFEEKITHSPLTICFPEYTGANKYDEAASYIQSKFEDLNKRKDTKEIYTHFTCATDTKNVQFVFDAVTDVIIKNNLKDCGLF
T2 sequence (Q9NQS5+P04899 fused): as above

CNC(=O)c1ccc(-c2nnc(Cc3c[nH]c4cnccc34)nc2-c2ccccc2)cc1 [Compound 68, 4-(3-((1H-Pyrrolo[2,3-c]pyridin-3-yl)methyl)-5-phenyl-1,2,4-triazin-6-yl)-N-methylbenzamide]
GTPγS (pIC50) (human GPR84 [1]): 7.29 ± 0.05 | logD [2]: 2.71 | solubility kinetic (physchem; [8]): 149 µM (≈ 62.7 µg/mL) | solubility kinetic (physchem; [9]): 143 µM (≈ 60.1 µg/mL) | solubility kinetic (physchem; [10]): 146 µM (≈ 61.4 µg/mL) | half-life [3]: 12.5 min | fraction unbound [4]: 0.038 | half-life (in vitro): 39.9 min

O=C(c1ccc(-c2nc(Cc3c[nH]c4ccccc34)nnc2-c2ccccc2)cc1)N1CCOCC1 [Compound 83, (4-(3-((1H-Indol-3-yl)methyl)-6-phenyl-1,2,4-triazin-5-yl)phenyl)(morpholino)methanone]
IC50 (human GPR84 [5]): 209 nM

Cc1nnc(Cc2c[nH]c3ccccc23)nc1-c1ccccc1 [Compound 28, 3-[(6-Methyl-5-phenyl-1,2,4-triazin-3-yl)methyl]-1H-indole]
LLE (human GPR84 [1]): 1.73 | IC50 (human GPR84 [5]): 10200 nM

CN1CCN(C(=O)c2ccc(-c3nc(Cc4c[nH]c5ccccc45)nnc3-c3ccccc3)cc2)CC1=O [Compound 89, 4-(4-(3-((1H-Indol-3-yl)methyl)-6-phenyl-1,2,4-triazin-5-yl)benzoyl)-1-methylpiperazin-2-one]
IC50 (human GPR84 [5]): 490 nM

COCCNC(=O)c1ccc(-c2nc(Cc3c[nH]c4ccccc34)nnc2-c2ccccc2)cc1 [Compound 87, 4-(3-((1H-Indol-3-yl)methyl)-6-phenyl-1,2,4-triazin-5-yl)-N-(2-methoxyethyl)benzamide]
IC50 (human GPR84 [5]): 72.4 nM

c1ccc(-c2nnc(Cc3c[nH]c4ccccc34)nc2-c2ccccc2)cc1 [Compound 4, 3-((5,6-Diphenyl-1,2,4-triazin-3-yl)methyl)-1H-indole]
block of the actions of the C3 fatty acid propionate at FFAR2 (human FFAR2): no ability to block; also recorded: did not block | block of the actions of the C3 fatty acid propionate at FFAR3 (human FFAR3): no ability to block; also recorded: did not block | logD [2]: 4.24 | solubility kinetic (physchem; pH 7.4, Kinetic Solubility, R=1, PBS pH7.4 in 2% DMSO by LC-MS, replicate 1): 1.5 µM (≈ 0.544 µg/mL) | solubility kinetic (physchem; pH 7.4, Kinetic Solubility, R=2, PBS pH7.4 in 2% DMSO by LC-MS, replicate 2): 1.3 µM (≈ 0.471 µg/mL) | solubility kinetic (physchem; [10]): 1.4 µM (≈ 0.507 µg/mL) | half-life [3]: 4.4 min | mouse PPB (mouse plasma protein): <1 %free | half-life (in vitro): 21.8 min

O=C(NCCO)c1ccc(-c2nc(Cc3c[nH]c4ccccc34)nnc2-c2ccccc2)cc1 [Compound 85, 4-(3-((1H-Indol-3-yl)methyl)-6-phenyl-1,2,4-triazin-5-yl)-N-(2-hydroxyethyl)benzamide]
IC50 (human GPR84 [5]): 28.8 nM

c1ccc(-c2nc(Cc3c[nH]c4ccccc34)nnc2-c2ccc(CN3CCOCC3)cc2)cc1 [Compound 42, 4-(4-(3-((1H-Indol-3-yl)methyl)-5-phenyl-1,2,4-triazin-6-yl)benzyl)morpholine]
GTPγS (pIC50) (human GPR84 [1]): 8.28 ± 0.11 | block of the actions of the C3 fatty acid propionate at FFAR2 (human FFAR2): no ability to block; also recorded: did not block | block of the actions of the C3 fatty acid propionate at FFAR3 (human FFAR3): no ability to block; also recorded: did not block | logD [2]: 3.84 | solubility kinetic (physchem; [8]): 12 µM (≈ 5.54 µg/mL) | solubility kinetic (physchem; [9]): 16 µM (≈ 7.39 µg/mL) | solubility kinetic (physchem; [10]): 14 µM (≈ 6.46 µg/mL) | half-life [3]: 16 min | mouse PPB (mouse plasma protein): <1 %free | AUCall [6]: 420 (12.5) ng/mL·h | C0 [6]: 394 (19.1) ng/mL | CL [6]: 38.9 (13.9) mL/min/kg | Vss [6]: 7.24 (9.2) L/kg | half-life [6]: 2.51 (6.55) h | Tmax [7]: 60 min | AUCall [7]: 1590 (18.7) ng/mL·h | Cmax [7]: 402 (31.8) ng/mL | bioavailability [7]: 36.8% | half-life (in vitro): 12.8 min

NC(=O)CNC(=O)c1ccc(-c2nc(Cc3c[nH]c4ccccc34)nnc2-c2ccccc2)cc1 [Compound 90, 4-(3-((1H-Indol-3-yl)methyl)-6-phenyl-1,2,4-triazin-5-yl)-N-(2-amino-2-oxoethyl)benzamide]
IC50 (human GPR84 [5]): 380 nM

CC(=O)NCCNC(=O)c1ccc(-c2nc(Cc3c[nH]c4ccccc34)nnc2-c2ccccc2)cc1 [Compound 88, 4-(3-((1H-Indol-3-yl)methyl)-6-phenyl-1,2,4-triazin-5-yl)-N-(2-acetamidoethyl)benzamide]
IC50 (human GPR84 [5]): 209 nM

CN1CCN(C(=O)c2ccc(-c3nc(Cc4c[nH]c5ccccc45)nnc3-c3ccccc3)cc2)CC1 [Compound 86, (4-(3-((1H-Indol-3-yl)methyl)-6-phenyl-1,2,4-triazin-5-yl)phenyl)(4-methylpiperazin-1-yl)methanone]
IC50 (human GPR84 [5]): 955 nM

Cc1nc(Cc2c[nH]c3ccccc23)nnc1-c1ccccc1 [Compound 29, 3-[(5-Methyl-6-phenyl-1,2,4-triazin-3-yl)methyl]-1H-indole]
LLE (human GPR84 [1]): 1.99 | IC50 (human GPR84 [5]): 5620 nM

CN(C)CCNC(=O)c1ccc(-c2nc(Cc3c[nH]c4ccccc34)nnc2-c2ccccc2)cc1 [Compound 84, 4-(3-((1H-Indol-3-yl)methyl)-6-phenyl-1,2,4-triazin-5-yl)-N-(2-(dimethylamino)ethyl)benzamide]
IC50 (human GPR84 [5]): 1000 nM

O=C(NCCO)c1ccc(-c2nnc(Cc3c[nH]c4ccccc34)nc2-c2ccccc2)cc1 [Compound 76, 4-(3-((1H-Indol-3-yl)methyl)-5-phenyl-1,2,4-triazin-6-yl)-N-(2-hydroxyethyl)benzamide]
GTPγS (pIC50) (human GPR84 [1]): 7.46 ± 0.07 | block of the actions of the C3 fatty acid propionate at FFAR2 (human FFAR2): no ability to block; also recorded: did not block | block of the actions of the C3 fatty acid propionate at FFAR3 (human FFAR3): no ability to block; also recorded: did not block | logD [2]: 3.09 | solubility kinetic (physchem; [8]): 59 µM (≈ 26.5 µg/mL) | solubility kinetic (physchem; [9]): 62 µM (≈ 27.9 µg/mL) | solubility kinetic (physchem; [10]): 61 µM (≈ 27.4 µg/mL) | half-life [3]: 47.3 min | fraction unbound [4]: 0.011 | AUCall [6]: 757 (10.8) ng/mL·h | C0 [6]: 1170 (29.6) ng/mL | CL [6]: 22.0 (11.3) mL/min/kg | Vss [6]: 1.81 (15.2) L/kg | half-life [6]: 1.22 (13.5) h | Tmax [7]: 60 min | AUCall [7]: 3160 (8.82) ng/mL·h | Cmax [7]: 1080 (16.1) ng/mL | bioavailability [7]: 41.5% | half-life (in vitro): 57.2 min
